{"source": "patent US4401604A", "about": "“Process for preparing thiosulfenamide derivatives of N-phosphonomethylglycine triesters” (Monsanto Company, priority 1981, dated 1983)", "assay_in_all_cases": "Post-emergence herbicidal activity, greenhouse", "format_in_all_cases": "in vivo", "conditions_in_all_cases": "Table I, 4 WAT", "key": {"Quackgrass": {"test_system": "Quackgrass", "from_the_text": "(§1) A good grade of top soil is placed in aluminum pans having holes in the bottom and compacted to a depth of 0.95 to 1.27 cm. from the top of the pan. A predetermined number of seeds of each of several dicotyledonous and monocotyledonous annual plant species and/or vegetative propagules for the perennial plant species are placed on the soil and pressed into the soil surface. The seeds and/or vegetative propagules are covered with soil and leveled. The pans are then placed on a sand bench in the greenhouse and watered from below as needed. After the plants reach the desired age (two to three weeks), each pan except for the control pans is removed individually to a spraying chamber and sprayed by means of an atomizer operating at a positive air pressure of approximately 1.46 kg/cm^2 absolute. The atomizer contains 6 ml. of a solution or suspension of the chemical. In that 6 ml., is an amount of a cyclohexanone emulsifying agent mixture to give a spray solution or suspension which contains about 0.4% by weight of the emulsifier. The spray solution or suspension contains a sufficient amount of the candidate chemical in order to give application rates corresponding to those set forth in the tables. The spray solution is prepared by taking an aliquot of a 1.0% by weight stock solution or suspension of the candidate chemical in an organic solvent such as acetone or tetrahydrofuran or in water. The emulsifying agent employed is a mixture comprising 35 weight percent butylamine dodecylbenzene sulfonate and 65 weight percent of a tall oil ethylene oxide condensate having about 11 moles of ethylene oxide per mole of tall oil. The pans are returned to the greenhouse and watered as before and the injury to the plants as compared to the control is observed at approximately two and four weeks as indicated in the tables under WAT and the results recorded. In some instances, the two-week observations are omitted.\n(§2) The post-emergence herbicidal activity index used in Table I is as follows:\n(§3) The plant species utilized in these tests are identified by letter in accordance with the following legend: […]"}, "Downy Brome": {"test_system": "Downy Brome", "from_the_text": "as §1, §2, §3"}, "Yellow Nutsedge": {"test_system": "Yellow Nutsedge", "from_the_text": "as §1, §2, §3"}, "Cocklebur": {"test_system": "Cocklebur", "from_the_text": "as §1, §2, §3"}, "Barnyardgrass": {"test_system": "Barnyardgrass", "from_the_text": "as §1, §2, §3"}, "Lambsquarters": {"test_system": "Lambsquarters", "from_the_text": "as §1, §2, §3"}, "Johnsongrass": {"test_system": "Johnsongrass", "from_the_text": "as §1, §2, §3"}, "Velvetleaf": {"test_system": "Velvetleaf", "from_the_text": "as §1, §2, §3"}, "Morningglory": {"test_system": "Morningglory", "from_the_text": "as §1, §2, §3"}}, "data": [{"smiles": "CCOC(=O)CN(CP(=O)(Oc1ccc(Cl)c(C)c1)Oc1ccc(Cl)c(C)c1)SSc1ccc(OC)cc1", "note": "[VII]", "values": [{"measurement": "post-emergence herbicidal activity index", "setting": "Quackgrass; 5.6 kg/h", "result": "1 (25-49% control)"}, {"measurement": "post-emergence herbicidal activity index", "setting": "Quackgrass; 11.2 kg/h", "result": "1 (25-49% control)"}, {"measurement": "post-emergence herbicidal activity index", "setting": "Downy Brome; 5.6 kg/h", "result": "2 (50-74% control)"}, {"measurement": "post-emergence herbicidal activity index", "setting": "Downy Brome; 11.2 kg/h", "result": "2 (50-74% control)"}, {"measurement": "post-emergence herbicidal activity index", "setting": "Yellow Nutsedge; 5.6 kg/h", "result": "2 (50-74% control)"}, {"measurement": "post-emergence herbicidal activity index", "setting": "Yellow Nutsedge; 11.2 kg/h", "result": "1 (25-49% control)"}, {"measurement": "post-emergence herbicidal activity index", "setting": "Cocklebur; 5.6 kg/h", "result": "1 (25-49% control)"}, {"measurement": "post-emergence herbicidal activity index", "setting": "Cocklebur; 11.2 kg/h", "result": "2 (50-74% control)"}, {"measurement": "post-emergence herbicidal activity index", "setting": "Barnyardgrass; 5.6 kg/h", "result": "3 (75-99% control)"}, {"measurement": "post-emergence herbicidal activity index", "setting": "Barnyardgrass; 11.2 kg/h", "result": "3 (75-99% control)"}, {"measurement": "post-emergence herbicidal activity index", "setting": "Lambsquarters; 5.6 kg/h", "result": "2 (50-74% control)"}, {"measurement": "post-emergence herbicidal activity index", "setting": "Lambsquarters; 11.2 kg/h", "result": "2 (50-74% control)"}, {"measurement": "post-emergence herbicidal activity index", "setting": "Johnsongrass; 5.6 kg/h", "result": "3 (75-99% control)"}, {"measurement": "post-emergence herbicidal activity index", "setting": "Johnsongrass; 11.2 kg/h", "result": "2 (50-74% control)"}, {"measurement": "post-emergence herbicidal activity index", "setting": "Velvetleaf; 5.6 kg/h", "result": "1 (25-49% control)"}, {"measurement": "post-emergence herbicidal activity index", "setting": "Velvetleaf; 11.2 kg/h", "result": "1 (25-49% control)"}, {"measurement": "post-emergence herbicidal activity index", "setting": "Morningglory; 5.6 kg/h", "result": "1 (25-49% control)"}, {"measurement": "post-emergence herbicidal activity index", "setting": "Morningglory; 11.2 kg/h", "result": "1 (25-49% control)"}]}]}
